From article PMC10443802, “Targeting a xenobiotic transporter to ameliorate vincristine-induced sensory neuropathy” (JCI Insight, 2023)
“And” between values parts separate entries of the source, which are not always exact repeats. Equal entries are not always repeated.

Columns and labels:
[1] = Plasma pharmacokinetics of nilotinib in mice; format: in vivo, mouse; conditions: OATP1B2(-/-) mice; for concentration at […]: DBA/1LacJ, mouse, plasma, oral, Plasma concentration of nilotinib
Procedure: Pharmacokinetic studies. Pharmacokinetic studies were performed following an established protocol […]
0.5% hydroxypropyl-methylcellulose in water) was administered at a dose of 10 mg/kg . Serial whole blood samples (0.25, 0.5, 1, 2, 4, and 6 h) were collected from the submandibular vein for the initial three time - points, from the retro-orbital sinus vein for the subsequent two time-points, and cardiac puncture at the terminal time-point. Blood samples were centrifuged at 11,000 rpm for 5 min, and the plasma supernatants collected and stored at -80°C until analysis by a validated method based on reversed -phase liquid chromatography coupled to tandem mass-spectrometric detection (LC-MS/MS). Livers were collected from the same animals at endpoint and, to prevent continuing metabolic activity, tissues were snap frozen using liquid nitrogen. […]
mg/kg or 100 mg/kg, and after 1.5 h, plasma, liver, and whole DRG were collected. All plasma and tissue specimens were stored at -80°C until further processing. […]
were collected at the final time point. […]
specimens were stored at -80°C until further processing. All tissues were homogenized with 5-mm […]
Finally, the beads were removed, and
WinNonlin version 8.0 (Certara). […]
of the data from the concentration-time curves.
Determination of drug levels. […]
column was maintained at 50°C.

[2] = conventional chronic regimen; cited from earlier work
[3] = target: hOATP4A1 (Homo sapiens, UniProt Q96BD0); assay: Vincristine uptake screen, HeLa cells overexpressing hOATP4A1; format: in vitro ADME
hOATP4A1, sequence (Q96BD0 whole entry): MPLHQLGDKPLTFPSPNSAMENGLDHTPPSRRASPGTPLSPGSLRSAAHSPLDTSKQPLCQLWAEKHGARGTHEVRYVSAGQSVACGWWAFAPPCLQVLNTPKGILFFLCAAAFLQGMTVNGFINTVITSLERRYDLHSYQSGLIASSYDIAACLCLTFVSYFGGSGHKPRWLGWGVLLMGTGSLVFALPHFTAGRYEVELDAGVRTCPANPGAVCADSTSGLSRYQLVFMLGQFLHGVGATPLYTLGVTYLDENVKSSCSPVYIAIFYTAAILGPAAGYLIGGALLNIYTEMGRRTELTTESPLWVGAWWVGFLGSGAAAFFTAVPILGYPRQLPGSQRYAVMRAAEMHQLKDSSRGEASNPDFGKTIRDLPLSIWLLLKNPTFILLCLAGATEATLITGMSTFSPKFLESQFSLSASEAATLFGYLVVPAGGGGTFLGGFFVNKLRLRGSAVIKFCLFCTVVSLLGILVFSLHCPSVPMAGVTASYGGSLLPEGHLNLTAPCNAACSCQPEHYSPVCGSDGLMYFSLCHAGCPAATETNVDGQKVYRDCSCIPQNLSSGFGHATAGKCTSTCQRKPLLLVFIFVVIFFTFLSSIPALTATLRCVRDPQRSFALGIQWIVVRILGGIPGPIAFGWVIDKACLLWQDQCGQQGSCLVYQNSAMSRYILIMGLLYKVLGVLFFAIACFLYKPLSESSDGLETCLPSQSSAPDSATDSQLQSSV
Procedure: (§1) Relative uptake is expressed as percentage change compared with empty vector controls (n = 4–14 per group). […] Human OATP1B1 and OATP1B3 transporter–overexpressed cells were used as positive controls; empty vector controls were used as the negative control. […] Mechanical allodynia (C), thermal hyperalgesia (D), and sciatic nerve maximal action potential amplitudes (E) are expressed as percentage change relative to baseline values (n = 6–8 per group). Statistical analysis was performed using a 2-way ANOVA with Bonferroni’s post hoc test. **P < 0.01, ***P < 0.001, ****P < 0.0001, compared with baseline values. […] Data are shown as mean ± SEM. […]
(§2) transfected with transporters of interest, including hOAT1, hOAT3, hOAT4, hOATP1A2, hOATP3A1, hOATP4A1, hOATP5A1, hOATP1C1, hOATP1B1, hOATP1B3, hOATP2B1, hOCT1, hOCT2, hOCTN1, hOCTN2, hASBT, hNTCP, hNPT1, hMATE1, hOSTα/β, hPEPT1, hPEPT2, rOatp1a1, rOatp1a4, rOatp1a5, rOatp1b2, rNtcp, rAsbt, rOat1, and rOct1. Cells were transfected with expression plasmid or vector control lacking any insert using Lipofectin reagent (Invitrogen). Sixteen hours thereafter, cells were washed with transport media (OPTIMEM, Invitrogen) and treated with radiolabeled drug. […] The cellular radioactivity was quantified by liquid scintillation counting as described above. […]

[4] = target: hOATP2B1 (Homo sapiens, UniProt O94956); assay: Vincristine uptake screen, HeLa cells overexpressing hOATP2B1; format: in vitro ADME
hOATP2B1, sequence (O94956 whole entry): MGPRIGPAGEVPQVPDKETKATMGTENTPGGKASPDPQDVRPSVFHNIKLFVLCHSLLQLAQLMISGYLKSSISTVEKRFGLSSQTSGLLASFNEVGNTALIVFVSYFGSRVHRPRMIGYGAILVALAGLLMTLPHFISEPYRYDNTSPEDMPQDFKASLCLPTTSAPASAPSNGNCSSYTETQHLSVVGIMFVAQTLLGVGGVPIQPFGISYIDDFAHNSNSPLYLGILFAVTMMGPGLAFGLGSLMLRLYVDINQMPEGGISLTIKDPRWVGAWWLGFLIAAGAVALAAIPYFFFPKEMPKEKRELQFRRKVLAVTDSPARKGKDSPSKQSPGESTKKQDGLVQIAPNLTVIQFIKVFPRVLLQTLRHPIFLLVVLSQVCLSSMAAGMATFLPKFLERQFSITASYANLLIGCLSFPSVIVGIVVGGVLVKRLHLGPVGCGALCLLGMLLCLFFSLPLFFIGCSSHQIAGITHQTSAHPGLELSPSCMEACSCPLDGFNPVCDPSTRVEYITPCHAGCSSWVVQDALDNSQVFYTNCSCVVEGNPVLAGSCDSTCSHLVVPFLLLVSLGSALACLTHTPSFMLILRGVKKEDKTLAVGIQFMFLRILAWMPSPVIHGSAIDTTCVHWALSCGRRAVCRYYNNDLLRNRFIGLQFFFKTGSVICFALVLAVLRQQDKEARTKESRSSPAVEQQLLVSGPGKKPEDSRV
Procedure: as §1
as §2, with “(Invitrogen).” for “(Invitrogen). Sixteen hours thereafter, cells were washed with transport media (OPTIMEM, Invitrogen) and treated with radiolabeled drug.”
(§3) Samples were analyzed using real-time quantitative PCR and Taqman Probes (Applied Biosystems). The relative gene expression was determined using the ΔΔCt method, and normalized to the mouse or human housekeeping gene, GAPDH. […]

[5] = target: hOATP1C1 (Homo sapiens, UniProt Q9NYB5); assay: Substrate uptake in HEK293 cells overexpressing hOATP1C1; conditions: HEK293 OATP1C1
hOATP1C1, sequence (Q9NYB5 whole entry): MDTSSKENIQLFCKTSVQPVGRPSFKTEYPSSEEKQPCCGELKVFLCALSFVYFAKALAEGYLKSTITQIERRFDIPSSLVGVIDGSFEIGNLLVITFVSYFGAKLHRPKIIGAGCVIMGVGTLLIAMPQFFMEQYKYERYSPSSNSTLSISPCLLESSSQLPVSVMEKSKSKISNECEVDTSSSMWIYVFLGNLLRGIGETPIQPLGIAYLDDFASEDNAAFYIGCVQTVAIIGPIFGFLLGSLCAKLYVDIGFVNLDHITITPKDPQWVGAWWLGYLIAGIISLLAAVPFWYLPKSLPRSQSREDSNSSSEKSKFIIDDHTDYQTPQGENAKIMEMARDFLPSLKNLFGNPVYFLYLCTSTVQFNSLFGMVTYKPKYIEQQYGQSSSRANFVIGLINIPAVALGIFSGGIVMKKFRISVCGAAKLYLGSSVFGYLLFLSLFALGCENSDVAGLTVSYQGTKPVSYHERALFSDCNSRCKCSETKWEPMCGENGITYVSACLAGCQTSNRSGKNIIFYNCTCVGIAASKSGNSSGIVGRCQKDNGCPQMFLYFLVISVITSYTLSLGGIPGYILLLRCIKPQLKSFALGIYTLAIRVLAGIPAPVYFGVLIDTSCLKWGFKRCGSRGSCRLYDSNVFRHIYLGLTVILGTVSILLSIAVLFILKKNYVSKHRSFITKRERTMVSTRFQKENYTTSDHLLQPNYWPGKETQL
Text: transfected with transporters of interest, including hOAT1, hOAT3, hOAT4, hOATP1A2, hOATP3A1, hOATP4A1, hOATP5A1, hOATP1C1, hOATP1B1, hOATP1B3, hOATP2B1, hOCT1, hOCT2, hOCTN1, hOCTN2, hASBT, hNTCP, hNPT1, hMATE1, hOSTα/β, hPEPT1, hPEPT2, rOatp1a1, rOatp1a4, rOatp1a5, rOatp1b2, rNtcp, rAsbt, rOat1, and rOct1. Cells were transfected with expression plasmid or vector control lacking any insert using Lipofectin reagent (Invitrogen). Sixteen hours thereafter, cells were washed with transport media (OPTIMEM, Invitrogen) and treated with radiolabeled drug. At various time intervals, cells were washed three times with ice-cold PBS and then lysed with 1% sodium dodecyl sulfate. The cellular radioactivity was quantified by liquid scintillation counting as described above. Similar analyses were performed in HEK293 cells transfected with hOATP1A2, hOATP1C1, mMATE1, and hMATE1, with cells seeded in poly lysine pre-coated 12-well plates. For hOATP1A2 and hOATP1C1, transient transfections were performed with either an empty vector, OATP1A2, or OATP1C1 using Lipofectamine 2000 according to the manufacturers protocol (Invitrogen). At 48 h post transfection, […]
as §3

[6] = system: OATP1B3 protein variants; assay: Vincristine transport by OATP1B3 single-nucleotide variants; format: in vitro ADME, human; conditions: single-nucleotide substitutions
Procedure: Figure S2. […] (A) Single […]
nucleotide polymorphisms (SNPs) activity percentage of OATP1B3 over-expressed cell after treated […]
Statistical analysis was performed using one-way ANOVA with Dunnett’s […]
(B) Schematic overview of […]
week (cumulative dose of 4 mg/kg). Von-Frey tests were performed on day -1, 9, 16, 18, and 23. Thermal hyperalgesia (Hargreaves test) and nerve conduction studies of the sciatic and caudal nerve were measured on days -1 and 23. Tissue samples for morphologic evaluation were obtained on day 24. (C) […]
and OATP1B2- deficient groups.
Normalized mechanical allodynia (E) was expressed as a percentage change relative to baseline values (n = 6-8 per group). Statistical

concentration at […] ([1]; 25 mg/kg) [ng/mL] | concentration at […] ([1]; 100 mg/kg) [ng/mL] | Plasma concentration of nilotinib ([1]; 25mg/kg) | Plasma concentration of nilotinib ([1]; 100mg/kg) | Structure (SMILES) | Median time from start of therapy to onset of QT events [2] [months] | Range of time from start of therapy to onset of QT events [2] | Vincristine uptake (% of vector control) [3] | Vincristine uptake (% of vector control) [4] | Contribution of transporter to cellular uptake of vincristine [5] | Transport by OATP1B3 protein variants [6]
8020 | 25800 | 9973.68 ng/mL and 13343.6 ng/mL | 22063.7 ng/mL and 33922 ng/mL | Cc1cn(-c2cc(NC(=O)c3ccc(C)c(Nc4nccc(-c5cccnc5)n4)c3)cc(C(F)(F)F)c2)cn1 [Nilotinib, nilotinib] | > 14 | 2–68 months | – | – | – | –
– | – | – | – | CC[C@]1(O)C[C@H]2CN(CCc3c([nH]c4ccccc34)[C@@](C(=O)OC)(c3cc4c(cc3OC)N(C=O)[C@H]3[C@@](O)(C(=O)OC)[C@H](OC(C)=O)[C@]5(CC)C=CCN6CC[C@]43[C@@H]65)C2)C1 [Vincristine, vincristine] | – | – | 134.00 % of vector control and 105.00 % of vector control and 130.00 % of vector control and 116.00 % of vector control and 108.00 % of vector control and 117.00 % of vector control and 144.00 % of vector control and 140.00 % of vector control | 113.00 % of vector control and 80.00 % of vector control and 88.00 % of vector control and 105.00 % of vector control and 83.00 % of vector control and 131.00 % of vector control and 125.00 % of vector control and 135.00 % of vector control | do not appreciably contribute to the cellular uptake of vincristine | impaired ability to transport vincristine
